pEC50, pIC50, pKd: −log10 of the molar value.
Legend:
[1] = system: Dlxi1/2b::eGFP+ cells in fused hSS-hCS; assay: Live imaging of interneuron migration in fused hSS-hCS (control); type: cell-based, human; conditions: 100 nM, before vs after exposure
Procedure: Live imaging and analysis of Dlxi1/2b::eGFP+ cell migration. The migration of Dlxi1/2b::eGFP+ cells was imaged for 8-12 hrs under environmentally controlled conditions (37° C., 5% CO2) in intact, fused hSS-hCS using a confocal microscope with a motorized stage (Leica SP8). Fused hSS-hCS were transferred to a well of a 96-well plate (glass-bottom plates, Corning) in 200 μl of NM. Spheroids were incubated in the environmentally controlled chamber for 30-60 min prior to imaging. During a given recording session, up to 8 fused hSS-hCS were imaged at a depth of 50-150 μm depth and a rate of 15-20 min/frame. For pharmacological manipulation, cells were imaged for 12 hrs to record a baseline. Then, the media was carefully removed and new media with small molecules (AMD3100 at 100 nM; nimodipine at 5 μM; or roscovitine at 15 μM) was gently added to the well. The field of view was readjusted to capture the previous region of interest and cells in fused hSS-hCS were imaged for an additional 12 hrs. For imaging of Dlxi1/2b::eGFP+ cells, E17-E18 slices were placed on inserts and infected with Dlxi1/2b::eGFP lentivirus after 24 hrs. The slices were imaged 2 days later using a Leica SP8 confocal microscope (see above). For measuring the branch to soma length ratio of human cells on mouse slices, hSSs infected with Dlxi1/2b::eGFP lentivirus were dissociated and placed on top of E13-14 mouse slices, which were placed on cell culture inserts 8-24 hrs before. The hSS-derived Dlxi1/2b::eGFP+ cells were imaged with the Leica SP8 confocal microscope system at least 48 hrs later. The migration of mouse Dlxi1/2b::eGFP+ cells or Cav1.2-electroporated cells and the migration of human fetal Dlxi1/2b::eG FP-infected cells both imaged using the same setting as described for intact, fused hSS-hCS. Slices were kept on the cell culture inserts during imaging. For quantification of migration of Dlxi1/2b::eGFP+ cells after plating on coverslips, intact hSS were plated on Poly-ornithine/laminin (Sigma) coated glass coverslips (15 mm; Werner). Cells were imaged 7-10 days after using a confocal microscope (Leica SP8) as described above. ImageJ and the Chemotaxis & Migration Tool (Ibidi) were used for the post-acquisition analysis of cell mobility. The StackReg plugin in ImageJ was used to correct for minor drifts during imaging. To estimate the length of individual saltations, Dlxi1/2b::eGFP cells displaying a swelling of the soma were identified, and distance (in μm) to the new position of the soma following nucleokinesis was recorded manually. The time necessary for this movement was used to calculate the speed when mobile. […] Path directness was calculated as the E/A ratio. […]

[2] = target: element-binding protein (CBP) (Homo sapiens, UniProt Q92793); conditions: cited from earlier work
element-binding protein (CBP), sequence (Q92793 whole entry): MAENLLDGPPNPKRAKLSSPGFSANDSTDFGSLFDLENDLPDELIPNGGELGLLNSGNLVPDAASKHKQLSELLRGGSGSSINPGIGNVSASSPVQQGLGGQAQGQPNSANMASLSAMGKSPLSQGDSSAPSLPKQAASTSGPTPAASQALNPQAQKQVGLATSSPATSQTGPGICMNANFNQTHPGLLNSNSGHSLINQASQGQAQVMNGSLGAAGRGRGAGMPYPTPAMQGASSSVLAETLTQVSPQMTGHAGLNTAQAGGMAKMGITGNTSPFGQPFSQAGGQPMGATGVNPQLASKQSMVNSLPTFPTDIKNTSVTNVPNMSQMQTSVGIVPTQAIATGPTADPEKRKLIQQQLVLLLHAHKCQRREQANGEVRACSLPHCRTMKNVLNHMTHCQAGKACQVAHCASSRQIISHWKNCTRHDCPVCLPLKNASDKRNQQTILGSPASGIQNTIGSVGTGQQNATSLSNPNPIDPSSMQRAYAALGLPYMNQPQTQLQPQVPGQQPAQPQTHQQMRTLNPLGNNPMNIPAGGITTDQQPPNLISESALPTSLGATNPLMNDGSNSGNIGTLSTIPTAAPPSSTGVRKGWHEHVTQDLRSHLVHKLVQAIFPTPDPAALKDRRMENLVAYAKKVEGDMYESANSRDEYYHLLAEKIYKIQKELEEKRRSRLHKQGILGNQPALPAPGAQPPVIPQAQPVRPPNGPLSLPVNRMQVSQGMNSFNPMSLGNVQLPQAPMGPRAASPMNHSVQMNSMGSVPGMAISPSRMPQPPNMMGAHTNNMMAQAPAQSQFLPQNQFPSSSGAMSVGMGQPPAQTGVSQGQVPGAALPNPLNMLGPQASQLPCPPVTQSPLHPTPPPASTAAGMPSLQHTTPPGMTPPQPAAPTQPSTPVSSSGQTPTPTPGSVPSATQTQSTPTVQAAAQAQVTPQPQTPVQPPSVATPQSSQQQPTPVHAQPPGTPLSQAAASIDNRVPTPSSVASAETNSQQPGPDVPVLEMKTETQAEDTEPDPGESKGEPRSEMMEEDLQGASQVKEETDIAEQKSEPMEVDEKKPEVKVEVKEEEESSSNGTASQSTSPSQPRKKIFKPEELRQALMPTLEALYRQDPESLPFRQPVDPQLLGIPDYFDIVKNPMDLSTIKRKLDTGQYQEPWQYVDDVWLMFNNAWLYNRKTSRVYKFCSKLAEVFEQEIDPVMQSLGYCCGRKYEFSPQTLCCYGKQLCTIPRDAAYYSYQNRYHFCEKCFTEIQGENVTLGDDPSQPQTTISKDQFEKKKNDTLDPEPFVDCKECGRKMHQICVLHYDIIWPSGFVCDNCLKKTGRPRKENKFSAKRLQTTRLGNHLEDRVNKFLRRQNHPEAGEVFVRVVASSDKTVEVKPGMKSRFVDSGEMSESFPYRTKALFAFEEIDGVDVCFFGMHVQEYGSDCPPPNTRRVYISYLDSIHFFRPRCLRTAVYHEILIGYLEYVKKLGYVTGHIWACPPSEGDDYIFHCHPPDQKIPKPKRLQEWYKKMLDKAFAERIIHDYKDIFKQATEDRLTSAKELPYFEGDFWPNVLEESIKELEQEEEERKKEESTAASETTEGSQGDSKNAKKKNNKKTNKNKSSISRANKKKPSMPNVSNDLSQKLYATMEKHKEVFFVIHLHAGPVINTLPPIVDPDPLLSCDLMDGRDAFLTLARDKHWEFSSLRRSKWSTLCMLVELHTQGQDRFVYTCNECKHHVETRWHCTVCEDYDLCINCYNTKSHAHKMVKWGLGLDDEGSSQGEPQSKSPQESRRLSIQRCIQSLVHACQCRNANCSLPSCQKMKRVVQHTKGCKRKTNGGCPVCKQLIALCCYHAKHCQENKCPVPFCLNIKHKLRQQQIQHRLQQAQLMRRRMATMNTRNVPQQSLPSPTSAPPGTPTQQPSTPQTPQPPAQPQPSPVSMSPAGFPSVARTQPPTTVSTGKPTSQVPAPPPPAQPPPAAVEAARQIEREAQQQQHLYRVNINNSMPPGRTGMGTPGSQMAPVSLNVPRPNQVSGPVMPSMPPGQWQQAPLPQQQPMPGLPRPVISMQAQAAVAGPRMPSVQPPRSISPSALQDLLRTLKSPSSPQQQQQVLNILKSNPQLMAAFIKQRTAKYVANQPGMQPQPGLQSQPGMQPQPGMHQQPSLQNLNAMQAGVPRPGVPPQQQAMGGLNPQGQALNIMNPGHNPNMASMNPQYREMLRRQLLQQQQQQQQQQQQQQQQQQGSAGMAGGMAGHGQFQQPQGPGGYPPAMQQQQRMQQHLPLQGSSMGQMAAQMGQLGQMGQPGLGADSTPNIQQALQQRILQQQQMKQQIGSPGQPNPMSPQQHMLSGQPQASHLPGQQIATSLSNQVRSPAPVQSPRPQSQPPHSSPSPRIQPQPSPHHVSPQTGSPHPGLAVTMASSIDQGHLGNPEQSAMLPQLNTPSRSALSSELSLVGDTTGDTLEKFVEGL

[3] = system: Wnt processing and secretion; conditions: cell-free assay; read-out: IC50, inhibition of Wnt processing and secretion; cited from earlier work
[4] = target: T1, Porcn (Homo sapiens, UniProt Q9H237); conditions: read-out: EC50, Porcn inhibition; cited from earlier work
T1 sequence (Q9H237 1-461): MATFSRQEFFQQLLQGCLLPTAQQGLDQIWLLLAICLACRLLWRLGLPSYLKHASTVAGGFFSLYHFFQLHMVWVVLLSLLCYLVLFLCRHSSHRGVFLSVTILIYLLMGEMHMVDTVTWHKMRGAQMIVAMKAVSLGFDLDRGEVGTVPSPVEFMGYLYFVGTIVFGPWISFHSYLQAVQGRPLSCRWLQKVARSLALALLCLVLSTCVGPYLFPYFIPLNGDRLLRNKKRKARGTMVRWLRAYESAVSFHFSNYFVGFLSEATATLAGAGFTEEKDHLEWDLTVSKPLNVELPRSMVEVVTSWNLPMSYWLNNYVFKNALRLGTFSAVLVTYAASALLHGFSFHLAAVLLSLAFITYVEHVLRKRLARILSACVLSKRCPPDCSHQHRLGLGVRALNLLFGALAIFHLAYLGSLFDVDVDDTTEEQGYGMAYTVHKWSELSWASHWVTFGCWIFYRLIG

[5] = system: Wnt signaling; conditions: TM3 cells; read-out: IC50, inhibition of Wnt signaling; cited from earlier work
[6] = target: Smo (Homo sapiens, UniProt Q99835); conditions: read-out: KD, Smo heptahelical domain; cited from earlier work
Smo, sequence (Q99835 28-787): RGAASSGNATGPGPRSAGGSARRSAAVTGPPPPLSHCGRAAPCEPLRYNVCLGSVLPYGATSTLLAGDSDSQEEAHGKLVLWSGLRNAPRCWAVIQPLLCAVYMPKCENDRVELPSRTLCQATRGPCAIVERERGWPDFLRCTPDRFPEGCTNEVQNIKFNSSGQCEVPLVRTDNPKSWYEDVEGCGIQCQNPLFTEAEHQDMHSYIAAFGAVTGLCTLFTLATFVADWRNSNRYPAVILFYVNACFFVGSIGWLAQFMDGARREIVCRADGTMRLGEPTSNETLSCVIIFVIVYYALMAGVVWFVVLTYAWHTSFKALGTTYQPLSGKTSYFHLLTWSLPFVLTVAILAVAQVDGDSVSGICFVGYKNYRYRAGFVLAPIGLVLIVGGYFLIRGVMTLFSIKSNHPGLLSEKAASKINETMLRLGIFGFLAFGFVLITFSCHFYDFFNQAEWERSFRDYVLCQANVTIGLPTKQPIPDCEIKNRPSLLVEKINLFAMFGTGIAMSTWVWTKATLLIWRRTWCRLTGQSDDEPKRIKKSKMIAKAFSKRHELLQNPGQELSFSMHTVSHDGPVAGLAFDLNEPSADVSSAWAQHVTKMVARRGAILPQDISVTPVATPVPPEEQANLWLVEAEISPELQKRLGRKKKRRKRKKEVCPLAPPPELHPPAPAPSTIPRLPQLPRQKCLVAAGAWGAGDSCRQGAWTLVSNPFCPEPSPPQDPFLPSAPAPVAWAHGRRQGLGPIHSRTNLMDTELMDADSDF

[7] = target: T2, TNKS2 (Homo sapiens, UniProt Q9H2K2); conditions: cited from earlier work
T2 sequence (Q9H2K2 1-1166): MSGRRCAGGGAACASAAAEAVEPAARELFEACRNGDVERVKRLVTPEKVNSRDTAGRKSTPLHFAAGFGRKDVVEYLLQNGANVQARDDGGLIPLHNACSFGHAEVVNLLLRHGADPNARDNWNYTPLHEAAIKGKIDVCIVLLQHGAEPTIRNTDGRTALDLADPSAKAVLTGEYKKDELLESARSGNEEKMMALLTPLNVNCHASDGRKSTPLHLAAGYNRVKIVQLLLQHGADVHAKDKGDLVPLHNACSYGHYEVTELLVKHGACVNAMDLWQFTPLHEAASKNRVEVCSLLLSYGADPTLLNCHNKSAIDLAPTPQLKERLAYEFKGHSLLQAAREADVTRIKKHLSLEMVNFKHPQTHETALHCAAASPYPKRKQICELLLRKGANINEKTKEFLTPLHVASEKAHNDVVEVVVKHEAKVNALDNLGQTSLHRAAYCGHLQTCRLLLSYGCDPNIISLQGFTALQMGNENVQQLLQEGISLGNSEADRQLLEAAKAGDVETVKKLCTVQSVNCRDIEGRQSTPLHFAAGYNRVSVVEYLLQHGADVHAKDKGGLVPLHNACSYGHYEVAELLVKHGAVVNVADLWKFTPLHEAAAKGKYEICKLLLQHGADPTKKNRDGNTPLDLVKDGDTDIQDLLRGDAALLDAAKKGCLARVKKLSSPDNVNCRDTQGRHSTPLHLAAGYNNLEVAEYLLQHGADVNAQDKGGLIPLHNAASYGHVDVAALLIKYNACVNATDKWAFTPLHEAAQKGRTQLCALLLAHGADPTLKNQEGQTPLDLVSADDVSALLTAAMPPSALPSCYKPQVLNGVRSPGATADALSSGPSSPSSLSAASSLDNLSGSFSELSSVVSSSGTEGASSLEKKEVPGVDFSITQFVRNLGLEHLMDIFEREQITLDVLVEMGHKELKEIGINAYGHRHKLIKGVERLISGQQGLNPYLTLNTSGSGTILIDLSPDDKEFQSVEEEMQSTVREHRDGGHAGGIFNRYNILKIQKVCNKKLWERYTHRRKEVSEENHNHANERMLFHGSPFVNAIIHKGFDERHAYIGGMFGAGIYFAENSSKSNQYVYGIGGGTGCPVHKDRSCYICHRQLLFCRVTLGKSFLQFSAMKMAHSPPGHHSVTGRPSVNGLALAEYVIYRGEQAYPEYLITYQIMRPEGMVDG

[8] = target: Wnt3A-mediated activation of a multimerized TCF-binding site driving luciferase; conditions: HEK293 cells; cited from earlier work
[9] = system: hSS; assay: Fluo-4 calcium imaging in intact hSS; conditions: 7 days AlloP 100 nM combined with 3-day retinoic acid 100 nM (hSS-ISRA); ~day 50; P=0.006
Procedure: The generation of hCS from hiPSC was performed as previously described. […] For the generation of hSS, the medium was supplemented with additional small molecules during the first 23 days in culture; a schematic showing the recipes is presented in FIG. 8a). […] IWP-2 (5 μM; Selleckchem) from day 4 until day 24, and the SHH pathway agonist SAG (smoothened agonist; 100 nM; Selleckchem) from day 12 to day 24. The hSS-ISA condition also included IWP2 and SAG with the addition of allopregnanolone (AlloP 100 nM; Cayman Chemicals) from day 15 to day 23, while the hSS-ISRA condition included AlloP (100 nM) from day 15-23, and a brief exposure (day 12-15) to retinoic acid (RA 100 nM; Sigma). From day 25 to 42, the NM for both the hCS and hSS conditions, was supplemented with the growth factors BDNF (20 ng/ml; Peprotech) and NT3 (20 ng/ml; Peprotech) with medium changes every other day. From day 43 onwards, hCS and hSS were maintained in unsupplemented NM with medium changes every four to six days.
Fluo-4 calcium imaging in intact hSS. […] Spontaneous calcium activity was recorded for 10 min (one frame every 8-10 s) in one 10 μm z-stack plane. Fluorescence intensity (F) was exported as mean gray values in ImageJ. Signal decay was controlled by subtracting the mean fluorescence of the background (Fb). […]

[10] = system: hSS; assay: Characterization of hSS differentiation conditions (RT-qPCR, immunostaining); conditions: AlloP with or without RA (hSS-ISA, hSS-ISRA)
Procedure: For the generation of hSS, the medium was supplemented with additional small molecules during the first 23 days in culture; a schematic showing the recipes is presented in FIG. 8a). […] IWP-2 (5 μM; Selleckchem) from day 4 until day 24, and the SHH pathway agonist SAG (smoothened agonist; 100 nM; Selleckchem) from day 12 to day 24. The hSS-ISA condition also included IWP2 and SAG with the addition of allopregnanolone (AlloP 100 nM; Cayman Chemicals) from day 15 to day 23, while the hSS-ISRA condition included AlloP (100 nM) from day 15-23, and a brief exposure (day 12-15) to retinoic acid (RA 100 nM; Sigma). From day 25 to 42, the NM for both the hCS and hSS conditions, was supplemented with the growth factors BDNF (20 ng/ml; Peprotech) and NT3 (20 ng/ml; Peprotech) with medium changes every other day. From day 43 onwards, hCS and hSS were maintained in unsupplemented NM with medium changes every four to six days.
Immunohistochemistry. Cryosections were washed with PBS to remove excess OCT and blocked in 10% goat serum (NGS), 0.3% Triton X-100 diluted in PBS for 1 hr at room temperature. […]
Real time quantitative PCR (qPCR). mRNA was isolated using the RNeasy Mini Kit and RNase-Free DNase set (Qiagen), and template cDNA was prepared by reverse transcription using the SuperScript III First-Strand Synthesis SuperMix for qRT-PCR (Life Technologies). […]

[11] = system: neurons in hSS; conditions: 10 μM; 250 μm sections of hSS
Procedure: (§1) Electrophysiology. […] Slicing was performed using a Leica VT1200 vibratome. Immediately after sectioning, slices were moved to a circulation chamber containing ACSF at 32° C.
(§2) For patch-clamp recording, cells were identified by the presence of a fluorescent reporter using an upright Axoscop II microscope (Zeiss). […] Cl− reversal was calculated to be at −91 mV according to the Nernst equation. […] The Cl− reversal potential was calculated to be 0 mV according to the Nernst equation. IPSCs were blocked by application of the GABAA receptor antagonist gabazine (10 μM, Abcam), which was added to superfused ACSF. EPSCs were blocked by application of the glutamate receptor antagonist kynurenic acid (1 mM, Abcam), which was added to superfused ACSF. Electrical simulation was delivered using a bipolar tungsten electrode (FHS) placed […] away from a recorded neuron. Stimulations were delivered to slices for 0.1 ms at […] and separated by at least 10 s. Inward EPSCs and outward IPSPs were recorded by filling the patch pipette with a low chloride internal solution (ECI−=−90 mV) and holding the cell at −40 mV, which is the midpoint between ECI− and EK+/Na+. […] Recordings were filtered at 10 kHz. Synaptic recordings were analyzed using custom software developed by J. R. H. (Wdetecta).

[12] = system: Dlxi1/2b::eGFP cells that migrated into hCS; conditions: 10 μM; fused hSS-hCS slices
Procedure: as §1, §2

[13] = system: hCS neurons; assay: Patch clamp recording of EPSCs in sliced hCS; type: cell-based, human; conditions: 1 mM, added to superfused ACSF
Procedure: Electrophysiology. […] Slicing was performed using a Leica VT1200 vibratome. […] Recordings were filtered at 10 kHz. […] Action potentials were analyzed using custom MATLAB (MathWorks) programs.

[14] = system: TS Dlxi1/2b::eGFP+ cells in fused hSS-hCS; assay: Live imaging of interneuron migration in fused hSS-hCS from Timothy syndrome; type: cell-based, human; conditions: 15 μM, P<0.001
Procedure: Live imaging and analysis of Dlxi1/2b::eGFP+ cell migration. The migration of Dlxi1/2b::eGFP+ cells was imaged for 8-12 hrs under environmentally controlled conditions (37° C., 5% CO2) in intact, fused hSS-hCS using a confocal microscope with a motorized stage (Leica SP8). Fused hSS-hCS were transferred to a well of a 96-well plate (glass-bottom plates, Corning) in 200 μl of NM. Spheroids were incubated in the environmentally controlled chamber for 30-60 min prior to imaging. During a given recording session, up to 8 fused hSS-hCS were imaged at a depth of 50-150 μm depth and a rate of 15-20 min/frame. For pharmacological manipulation, cells were imaged for 12 hrs to record a baseline. […] The field of view was readjusted to capture the previous region of interest and cells in fused hSS-hCS were imaged for an additional 12 hrs. […] For quantification of migration of Dlxi1/2b::eGFP+ cells after plating on coverslips, intact hSS were plated on Poly-ornithine/laminin (Sigma) coated glass coverslips (15 mm; Werner). […] To estimate the length of individual saltations, Dlxi1/2b::eGFP cells displaying a swelling of the soma were identified, and distance (in μm) to the new position of the soma following nucleokinesis was recorded manually. […] Path directness was calculated as the E/A ratio. […]

With c1cc(CN2CCCNCCNCCCNCC2)ccc1CN1CCCNCCNCCCNCC1 [AMD3100] the saltation length ([1]; P=0.006) was “significant reduction”, the speed when mobile ([1]; P=0.006) was “significant reduction” and the path directness ([1]; P=0.02) was “change”. The frequency of saltations ([1]; P=0.03) was “significant reduction”.

For O=C1[C@H](Cc2ccc(O)cc2)N2C(=O)CCN(C(=O)NCc3ccccc3)[C@H]2CN1Cc1cccc2ccccc12 [ICG-001], the pIC50 [2] is given as 5.52.

In the case of Cc1ccc2nc(NC(=O)CSc3nc4c(c(=O)n3-c3ccccc3)SCC4)sc2c1 [IWP-2], the pIC50 [3] is given as 7.57.

For O=C(CSc1nc2c(c(=O)n1-c1ccccc1)SCC2)Nc1ccc(-c2ccccc2)cn1 [IWP-L6], the pEC50 [4] is given as 9.30.

In the case of Cc1cc(-c2ncc(CC(=O)Nc3ccc(-c4cnccn4)cn3)cc2C)ccn1 [LGK-974], the pIC50 [5] is given as 9.40.

In the case of CNC1CCC(N(Cc2cccc(-c3ccncc3)c2)C(=O)c2sc3ccccc3c2Cl)CC1 (centres unmarked) [SAG], the pKd [6] is given as 7.23.

In the case of COc1ccc(-n2c(SCCCN3C(=O)c4cccc5cccc(c45)C3=O)nnc2-c2ccncc2)cc1 [WIKI4], the pIC50 [7] is listed as 7.82.

For Cc1cc(-c2ccc(CC(=O)Nc3ccc(-c4cccnc4)cc3)cc2)ccn1 [Wnt-059], the pIC50 [8] is listed as 10.13.

In the case of CC(=O)[C@H]1CC[C@H]2[C@@H]3CC[C@H]4C[C@H](O)CC[C@]4(C)[C@H]3CC[C@]12C [allopregnanolone], the “frequency of spontaneous calcium spikes” value [9] was “significantly increased” and the “subpallial fate, neurotransmitter identity and GABAergic subtypes in hSS” value [10] was “did not alter”.

In the case of COc1ccc(-c2ccc(=N)n(CCCC(=O)O)n2)cc1 [gabazine], the “spontaneous inhibitory postsynaptic responses (sIPSCs)” value [11] was “abolished” and the “evoked disynaptic IPSCs after electrical stimulation” value [12] was “sensitive”.

For O=C(O)c1cc(=O)c2ccccc2[nH]1 [kynurenic acid], the EPSCs [13] was “blocked”.

For CC[C@H](CO)Nc1nc(NCc2ccccc2)c2ncn(C(C)C)c2n1 [roscovitine], the saltation length [14] was “rescuing”.

— US12173313B2, “Assembly of functionally integrated human forebrain spheroids and methods of use thereof” (The Board of Trustees of the Leland Stanford Junior …, priority 2017, dated 2024)
